pIC50: −log10 of the molar value. Like-named read-outs stand apart in the source and are kept apart here.
What was measured:
Format in all cases: cell-based
[1] = tested on: Ba/F3-EGFR-insSVD; assay: Ba/F3 cell survival assay, EGFR-insSVD
Method in brief: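 Ba/F3 cells stably expressing WT EGFR or EGFR-insSVD via retrovirus, grown without IL-3 on 10 ng/mL EGF, plated at 4000 cells/well. Compound exposure 48 h at 37 °C; viability read by CellTiter-Glo luminescence.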

[2] = tested on: Ba/F3-EGFR-D770_N771insNPG; assay: Ba/F3 cell survival assay, EGFR D770_N771insNPG; conditions: Mus musculus, BaF3, 48 h, read-out: BA/F3 (insNPG) IC50
Protocol: (§1) 293T cells from ATCC were transfected with pBABEpuro expression constructs for mutant EGFR (V769_D770insASV, D770_N771insNPG, N771_P772insH, H773_V774insNPH, E746_A750del, L858R, D770_N771 insSVD C797S, E746_A750del C797S, L858R C797S, L861Q) or mutant ERBB2 (A775_G776insYVMA) and pCL-Eco packaging vector using Fugene-6 transfection reagent from Promega. Plates were incubated at 37° C. for 48 h. Retrovirus was harvested by filtering the media supernatant through a 0.45 μm filter.
(§2) Ba/F3 cells purchased from DSMZ were grown in RPMI+10% FBS+10 ng/mL IL-3 and infected with filtered retroviral supernatant at a 1:2 dilution. Polybrene was added to a concentration of 8 μg/mL, plates were spun for 90 min, and incubated overnight at 37° C. 2 μg/mL puromycin was added to the infected cells 24 h after infection and cells were continually grown in the presence of puromycin and 10 ng/mL IL-3. Following stably expressing Ba/F3 cell lines were generated: Ba/F3-EGFR-V769_D770insASV, Ba/F3-EGFR-D770_N771insNPG, Ba/F3-EGFR-N771_P772insH, Ba/F3-EG, Ba/F3-EGFR-H773_V774insNPH, Ba/F3-EGFR-E746_A750del, Ba/F3-EGFR-L858R, Ba/F3-EGFR-D770_N771 insSVD C797S, Ba/F3-EGFR-E746_A750del C797S, Ba/F3-EGFR-L858R C797S, Ba/F3-EGFR L861Q and Ba/F3-ERBB2-A775_G776insYVMA (Ba/F3—vector-control).
(§3) For cell survival assays, Ba/F3 cells were grown to a density of 1-2 million cells per mL, spun down and resuspended in media without IL-3, and replated at a concentration 200,000-500,000 cells per mL. The cells ectopically expressing WT EGFR plated with 10 ng/mL Millipore Culture grade EGF and Ba/F3 cells containing mutant EGFR or Mutant ERBB2 were cultivated without EGF. The cells ectopically expressing pBABEpuro empty vector were plated with 10 ng/mL IL-3.
(§4) 2 days later, cells were plated in 50 μL in a 384 well plate at a concentration of 4000 cells per well for cells assayed in the absence of IL-3 and 2000 cells per well for cells assayed in the presence of IL-3. 100 nL of compound was added to each well using a 100 nL pin head, and plates were incubated at 37° C. for 48 h.
(§5) Cell viability was measured by adding 20 μL of Cell Titer-Glo Luminescent Cell Viability Reagent diluted 1:3 in PBS. Plates were sealed with Perkin Elmer Top-Seal, inverted several times to mix, and immediately centrifuged at 1000 rpm for 2 min. Plates were incubated in low light conditions for 8-10 min and luminescence was measured.

[3] = tested on: Ba/F3-EGFR-E746_A750del; assay: Ba/F3 cell survival assay, EGFR E746_A750del; conditions: 48 h, read-out: BA/F3 (EGFR E746_A750del) IC50
Protocol: as §1, §2, §3, §4, §5

[4] = tested on: Ba/F3-EGFR L861Q; assay: Ba/F3 cell survival assay, EGFR L861Q; conditions: 48 h, read-out: BA/F3 (EGFR L861Q) IC50
Protocol: as §1, §2, §3, §4, §5

[5] = tested on: Ba/F3-EGFR-D770_N771 insSVD C797S; assay: Ba/F3 cell survival assay, EGFR D770_N771insSVD C797S; conditions: Ba/F3 EGFR-D770-N771ins_SVD, 48 h, read-out: BA/F3 (EGFR 0770_N771 insSVD C797S) IC50
Protocol: as §1, §2, §3, §4, §5

[6] = tested on: PC9 cells; assay: PC9 cell proliferation assay (EGFRex19del); conditions: Homo sapiens, PC-9, 72 h, read-out: PC9 IC50
Protocol: (§6) PC9 cells were purchased from ATCC. 400 PC9 cells per well were seeded in growth medium (DMEM, 10% FCS) in a 384-well plate (CORNING #3571). Seed reference plate for time zero determination on the same day. All plates were incubated overnight at 37° C. After 24 hours, test compound were added in 7-step dilution using HP Compound printer and incubated at 37° C. for 72 h. After 3 days, 30 μL/well CTG solution (Promega Cell Titer Glo solution; catalog #G755B and G756B) were added to each well, incubated for 30 minutes and the plate were read on PheraStar. Proliferation is calculated after subtracting time zero luminescence values from day 4 values and comparing to untreated wells. The IC50 values were determined using the four parameter fit.

[7] = tested on: HCC-827 cells; assay: HCC-827 cell proliferation assay (EGFRex19del); conditions: Homo sapiens, HCC827, 72 h, read-out: HCC-827 IC50
Protocol: as §6, with “HCC-827 cells” for “PC9 cells”, “[…]” for “400 PC9”, “medium (RPMI1640,” for “medium (DMEM,”, “wells.” for “wells. The IC50 values were determined using the four parameter fit.”
The IC50 values were determined using the four parameter fit.

[8] = read-out: BA/F3 (insSVD) IC50, cell viability, Cell Titer-Glo, 48 h, with 10 ng/mL EGF, without IL-3

| Compound | pIC50 [1, 8] | pIC50 [2] | pIC50 [3] | pIC50 [4] | pIC50 [5] | pIC50 [6] | pIC50 [7] | pIC50 ([1]; Mus musculus, BaF3, 48 h, read-out: BA/F3 (insSVD) IC50, cell viability, Cell Titer-Glo, 48 h, with 10 ng/mL EGF, without IL-3) |
| --- | --- | --- | --- | --- | --- | --- | --- | --- |
| COc1c(Cl)cccc1Nc1c(-c2ccncc2OCC2(C)CCO2)[nH]c2c1C(=O)NCC2 (single isomer, unassigned; (+)) [Example 48, (+)-3-(3-chloro-2-methoxyanilino)-2-{3-[(2-methyloxetan-2-yl)methoxy]pyridin-4-yl}-1,5,6,7-tetrahydro-4H-pyrrolo[3,2-c]pyridin-4-one] | 8.02 | 8.07 | 9.47 | 7.83 | 7.78 | 8.68 | > 8.52 |  |
| COc1c(Cl)cccc1Nc1c(-c2ccncc2OCC2OCC2(C)C)[nH]c2c1C(=O)NCC2 (single isomer, unassigned; (+)) [Example 50, (+)-3-(3-chloro-2-methoxyanilino)-2-{3-[(3,3-dimethyloxetan-2-yl)methoxy]pyridin-4-yl}-1,5,6,7-tetrahydro-4H-pyrrolo[3,2-c]pyridin-4-one] | 8.06 | 8.04 | 9.28 | 7.67 | 7.45 | 8.64 | > 8.52 |  |
| COc1c(Cl)cccc1Nc1c(-c2ccncc2OCCC2CCO2)[nH]c2c1C(=O)NCC2 (single isomer, unassigned; (-)) [Example 26, (−)-3-(3-chloro-2-methoxyanilino)-2-{3-[2-(oxetan-2-yl)ethoxy]pyridin-4-yl}-1,5,6,7-tetrahydro-4H-pyrrolo[3,2-c]pyridin-4-one] | 8.14 | 8.12 | 9.57 | 8.19 | 7.86 | 8.85 | > 8.52 |  |
| COc1c(Cl)cccc1Nc1c(-c2ccncc2OC[C@@H]2CCO2)[nH]c2c1C(=O)NCC2 [Example 2, 3-(3-chlor-2-methoxyanilino)-2-{3-[(2S)-oxetan-2-ylmethoxy]pyridin-4-yl}-1,5,6,7-tetrahydro-4H-pyrrolo[3,2-c]pyridin-4-on] |  | 8.01 | 9.48 | 7.77 | 7.76 | 8.64 | > 8.52 | 7.99 |

— patent US20240307362A1 (priority 2019, published 2024)
